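The compound was tested at five concentrations on cells cultured in 96-well plates, with a 48-hour exposure period. TGI: total growth inhibition.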
Tests used:
Assay in all cases: growth of human tumour cells (NCI), 48 h
786-0 renal = test system: 786-0 renal
A498 renal = test system: A498 renal
A549 NSCLC = test system: A549 NSCLC
ACHN renal = test system: ACHN renal
CAKI-1 renal = test system: CAKI-1 renal
CCRF-CEM leukemia = test system: CCRF-CEM leukemia
COLO 205 colon = test system: COLO 205 colon
DLD-1 colon = test system: DLD-1 colon
DMS 114 small cell lung = test system: DMS 114 small cell lung
DMS 273 small cell lung = test system: DMS 273 small cell lung
EKVX NSCLC = test system: EKVX NSCLC
HCC-2998 colon = test system: HCC-2998 colon
HCT-116 colon = test system: HCT-116 colon
HCT-15 colon = test system: HCT-15 colon
HL-60(TB) leukemia = test system: HL-60(TB) leukemia
HOP-62 NSCLC = test system: HOP-62 NSCLC
IGROV1 ovarian = test system: IGROV1 ovarian
K-562 leukemia = test system: K-562 leukemia
KM12 colon = test system: KM12 colon
KM20L2 colon = test system: KM20L2 colon
LOX IMVI melanoma = test system: LOX IMVI melanoma
LXFL 529 NSCLC = test system: LXFL 529 NSCLC
M14 melanoma = test system: M14 melanoma
M19-MEL melanoma = test system: M19-MEL melanoma
MALME-3M melanoma = test system: MALME-3M melanoma
MOLT-4 leukemia = test system: MOLT-4 leukemia
NCI-H23 lung = test system: NCI-H23 lung
NCI-H460 lung = test system: NCI-H460 lung
NCI-H522 lung = test system: NCI-H522 lung
OVCAR-3 ovarian = test system: OVCAR-3 ovarian
OVCAR-4 ovarian = test system: OVCAR-4 ovarian
OVCAR-5 ovarian = test system: OVCAR-5 ovarian
OVCAR-8 ovarian = test system: OVCAR-8 ovarian
RPMI-8226 leukemia = test system: RPMI-8226 leukemia
SF-268 CNS = test system: SF-268 CNS
SF-539 CNS = test system: SF-539 CNS
SK-MEL-2 melanoma = test system: SK-MEL-2 melanoma
SK-MEL-28 melanoma = test system: SK-MEL-28 melanoma
SK-MEL-5 melanoma = test system: SK-MEL-5 melanoma
SK-OV-3 ovarian = test system: SK-OV-3 ovarian
SN12C renal = test system: SN12C renal
SNB-19 CNS = test system: SNB-19 CNS
SNB-75 CNS = test system: SNB-75 CNS
SNB-78 CNS = test system: SNB-78 CNS
SR leukemia = test system: SR leukemia
SW-620 colon = test system: SW-620 colon
TK-10 renal = test system: TK-10 renal
U251 CNS = test system: U251 CNS
UACC-257 melanoma = test system: UACC-257 melanoma
UACC-62 melanoma = test system: UACC-62 melanoma
UO-31 renal = test system: UO-31 renal
XF 498 CNS = test system: XF 498 CNS
HT29 colon = test system: HT29 colon
NCI-H226 lung = test system: NCI-H226 lung
RXF 393 renal = test system: RXF 393 renal
SF-295 CNS = test system: SF-295 CNS
HOP-92 NSCLC = test system: HOP-92 NSCLC

Measured: TGI

N#Cc1c2nc3ccccc3nc2n2ccccc12
not listed: HT29 colon | NCI-H226 lung | RXF 393 renal | SF-295 CNS | HOP-92 NSCLC
> 100 µM: all other assays above

Oc1c(-c2ccccc2)nc2ccccn12
not listed: COLO 205 colon | HCT-15 colon | LOX IMVI melanoma | RPMI-8226 leukemia | HOP-92 NSCLC
> 100 µM: all other assays above

N#CC(/C(=N/N=C(N)N)C(=O)Nc1ccccc1[N+](=O)[O-])c1nc(-c2ccc([N+](=O)[O-])cc2)cs1 (stereo unspecified)
not listed: HOP-92 NSCLC
> 100 µM: all other assays above

CCOC(=O)C1N(S(=O)(=O)c2ccc(C)cc2)CCC12c1ccccc1NC2c1ccc(OC)c(OC)c1 (stereo unspecified)
24.4 µM: HOP-92 NSCLC
34 µM: IGROV1 ovarian
not listed: MOLT-4 leukemia | SK-MEL-2 melanoma
> 100 µM: all other assays above

O=C(/C=C/c1c(O)ccc2ccccc12)c1ccccc1Cl
50.7 µM: CCRF-CEM leukemia
80.6 µM: SF-539 CNS
75 µM: HOP-92 NSCLC
46.8 µM: UACC-257 melanoma
29.9 µM: UACC-62 melanoma
46.9 µM: SK-MEL-28 melanoma
52.2 µM: NCI-H23 lung
31.9 µM: COLO 205 colon
35.1 µM: HL-60(TB) leukemia
41.5 µM: MALME-3M melanoma
92.3 µM: SK-MEL-2 melanoma
53.4 µM: K-562 leukemia
53.8 µM: LOX IMVI melanoma
53.3 µM: DMS 114 small cell lung
62.2 µM: XF 498 CNS
28.3 µM: M19-MEL melanoma
86.5 µM: SN12C renal
32.3 µM: SK-MEL-5 melanoma
61.3 µM: HCT-116 colon
34.9 µM: M14 melanoma
73.9 µM: SF-295 CNS
90 µM: NCI-H522 lung
57.1 µM: SW-620 colon
not listed: SR leukemia
> 100 µM: all other assays above

From PubChem BioAssay (NCI)
